Measured values as given in patent US11760750B1, “Process for preparing levoketoconazole” (Nuray Chemicals Private Limited, priority 2022, dated 2023).

Assays:
[1] = Powder flow of crystalline levoketoconazole: bulk density, tapped density, Hausner Ratio, Carr Index (USP <1174>); type: physicochemical
Experimental: The Hausner Ratio is a value calculated by dividing the tapped density of the levoketoconazole by the freely settled bulk density of the levoketoconazole. The freely settled bulk density is calculated by pouring a known weight of material into a measuring cylinder and recording the volume. The tapped density is calculated by tapping the cylinder against a surface for a specified numbers of times and recording again the new volume.
The Carr (or Compressibility) Index is frequently used in pharmaceutics as an indication of the compressibility of a powder. The Carr Index may be calculated by dividing the difference of the tapped and bulk densities by the tapped density and then multiplying by 100. In a free-flowing powder, the bulk density and tapped density would be close in value; therefore, the Carr Index would be small. On the other hand, in a poor-flowing powder where there are greater interparticle interactions, the difference between the bulk and tapped density observed would be greater, therefore, the Carr Index would be larger.

[2] = Solubility in water; type: physicochemical

- Carr Index (Compressibility Index) [1]: below 15
- flowability (flow character by Hausner Ratio) [1]: good
- bulk density ([1]; 100 g sample, 250 mL graduated cylinder): about 0.576 g/mL
- Hausner Ratio ([1]; 500 taps): 1.120
- Hausner Ratio ([1]; 1250 taps): 1.18
- tapped density ([1]; after 500 taps): about 0.686 g/mL
- tapped density ([1]; after 1,250 taps): about 0.681 g/mL
- solubility in water [2]: poorly soluble in water
SMILES: CC(=O)N1CCN(c2ccc(OC[C@@H]3CO[C@@](Cn4ccnc4)(c4ccc(Cl)cc4Cl)O3)cc2)CC1 [crystalline levoketoconazole, (2S,4R)-cis-1-acetyl-4-[4-[[2-(2,4-dichlorophenyl)-2-(1H-imidazol-1-ylmethyl)-1,3-dioxolan-4-yl]methoxyl]phenyl] piperazine]
